One assay deals with E. coli NCTC 13353. In words: Zone of inhibition, agar well, with and without ceftazidime. The assay is classed as cell-based. Particulars: for Diameter of Zone of Inhibition, Compound + Ceftazidime (10 μg/ml): E. coli NCTC 13353; for zone of inhibition at 0.25 µg/disc / zone of inhibition at 0.5 µg/disc / zone of inhibition at 1 µg/disc: Escherichia coli, NCTC13353, read-out: Diameter of Zone of Inhibition, Compound. As to the method: (§1) In a typical experiment, two sets of plates containing growth media (Molten Mueller Hilton Agar) and bacterial strains were prepared. One set of plates was taken as control (without ceftazidime) and other set contained ceftazidime. The media was allowed to solidify and wells were punched later, into which varying concentrations of compounds according to the invention were poured. A two-fold serial dilution range of each of the compounds according to invention was prepared and 50 μl of each of the dilution was added into the punched well. The plates were then incubated at 37° C. for 18 hours in BOD incubator and diameters of zone of inhibition were measured after the completion of the incubation.
(§2) The Table 6 provides the antibacterial activity of the combination comprising compounds according to invention and ceftazidime. The compounds according to invention were tested at 0.12, 0.25, 0.5 and 1 μg/well.

The subject of the next assay is E. coli M50. The description is as above. In kind it is cell-based. To be noted: for Diameter of Zone of Inhibition, Compound + Ceftazidime (10 μg/ml): E. coli M50; for zone of inhibition at 0.25 µg/disc / zone of inhibition at 0.5 µg/disc / zone of inhibition at 1 µg/disc: Escherichia coli, M50, read-out: Diameter of Zone of Inhibition, Compound. As to the method: as §1, §2

For assay [1], the system named is K. pneumoniae S48 (NDM, SHV, TEM). Briefly: Antibacterial activity (MIC), agar dilution per CLSI. The assay is classed as cell-based. Particulars: Klebsiella pneumoniae. As to the method:
(§3) The biological activity of representative compounds according to the invention against various bacterial strains was investigated. In a typical study, overnight grown bacterial cultures were diluted appropriately and inoculated on the agar media containing doubling dilutions of the test compounds. Observations for growth or no growth was performed after 16-20 hours of incubation at 35±2° C. in the ambient air. The overall procedure was performed as per Clinical and Laboratory Standards Institute (CLSI) recommendations, (Clinical and Laboratory Standards Institute (CLSI), Performance Standards for Antimicrobial Susceptibility Testing, 20th Informational Supplement, M07-A9, Volume 32, No. 2, 2012). Molten Mueller Hinton Agar (BD, USA) containing serial dilutions of each antibacterial agent were poured on to the plates and allowed to solidify. Appropriate suspensions from the freshly grown cultures were prepared in normal saline so that about 10^4 CFU/spot of the organism was delivered on to the drug containing agar plates using automated multipoint inoculator (Mast, UK). The plates were incubated in Biochemical oxygen demand (BOD) incubator at 37° C. for 18 hours and then examined for growth.
(§4) The strains selected for study included E. coli NCTC 13353 producing CTX-M15 and OXA-1 beta-lactamase enzymes; K. pneumoniae H521 producing KPC, SHV, TEM beta-lactamase enzymes; and K. pneumoniae S48 producing NDM, SHV, TEM beta-lactamase enzymes. The activities are expressed as Minimum Inhibitory Concentrations (MICs) (mcg/ml).
For orientation: In agar dilution, organisms are placed on agar that contains the substance at set levels.

The subject of assay [2] is Class C beta-lactamase CMY/DHA (E. coli M50). In words: Beta-lactamase enzyme inhibition (Nitrocefin, crude enzyme). The assay is classed as biochemical. As for the experimental part:
(§5) Absorbance was measured at 485 nm by UV-spectrophotometer. The IC50 was calculated by plotting absorbance against concentration through Sigmoidal dose response curve using Graph Pad software.
(§6) The enzyme inhibition was expressed as IC50.

Assay [3] addresses T1, Class A beta-lactamase SHV 18 (K. pneumoniae ATCC 700603) (Klebsiella pneumoniae, UniProt P0AD64, E235K/G234A/I4F/R39S).
T1 sequence (P0AD64 1-286 I4F/R39S/G234A/E235K): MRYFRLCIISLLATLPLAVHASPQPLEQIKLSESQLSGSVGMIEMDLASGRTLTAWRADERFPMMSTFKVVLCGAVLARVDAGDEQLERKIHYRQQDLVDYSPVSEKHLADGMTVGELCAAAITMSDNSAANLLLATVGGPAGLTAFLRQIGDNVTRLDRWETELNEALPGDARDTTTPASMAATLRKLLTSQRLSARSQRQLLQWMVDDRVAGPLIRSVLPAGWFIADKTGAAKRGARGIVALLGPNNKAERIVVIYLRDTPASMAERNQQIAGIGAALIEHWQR
The description is as above. The assay is classed as biochemical. Particulars: Beta-lactamase enzyme inhibition IC50, Class A, K. pneumoniae ATCC 700603 (SHV 18). As to the method: as §5, §6

For assay [4], the target named is T2, Class D beta-lactamase OXA 23 (A. baumannii NCTC 13301) (Acinetobacter baumannii, UniProt Q9L4P2).
T2 construct: preincubated mixture of crude enzyme and the compounds; endogenous in cells; host or cells: A. baumannii NCTC 13301
Described as above. In kind it is biochemical. To be noted: A. baumannii NCTC 13301 (OXA 23). As for the experimental part:
as §5, §6

In assay [5] the test system is E. coli NCTC 13353 (CTX-M15, OXA-1). Briefly: Antibacterial activity (MIC), agar dilution per CLSI. The assay is classed as cell-based. To be noted: Escherichia coli. As to the method: as §3, §4
(§7) The activities are expressed as Minimum Inhibitory Concentrations (MICs) (mcg/ml).

Assay [6] relates to K. pneumoniae H521 (KPC, SHV, TEM). The assay is described as above. In kind it is cell-based. Particulars: Klebsiella pneumoniae. As for the experimental part:
as §3, §4, §7

Assay [7] has as its target Class D beta-lactamase OXA 26 (A. baumannii NCTC 13303) (Acinetobacter baumannii, UniProt Q9F0V2). In words: Beta-lactamase enzyme inhibition (Nitrocefin, crude enzyme). The assay is classed as biochemical. Particulars: read-out: Beta-lactamase enzyme inhibition IC50, A. baumannii NCTC 13303 (OXA 26). As for the experimental part:
as §5

Where [8] appears, read: compound 0.25 μg/well + Ceftazidime 10 μg/ml.
The mark [9] stands for this setting: compound 0.5 μg/well + Ceftazidime 10 μg/ml.
Where [10] appears, read: compound 1 μg/well + Ceftazidime 10 μg/ml.
Setting [11] is: compound […] + Ceftazidime 10 μg/ml.
[12] abbreviates: Beta-lactamase enzyme inhibition IC50, Class D.
Where [13] appears, read: NCTC13353, E. coli NCTC 13353 (CTX-M15, OXA-1), read-out: MIC.
The mark [14] stands for this setting: K. pneumoniae H521 (KPC, SHV, TEM), read-out: MIC.
Setting [15] is: Class D, read-out: Beta-lactamase enzyme inhibition IC50.

Values after ≈ are worked out from the molar mass of the structure shown. Like-named read-outs stand apart in the source and are kept apart here.

T2 sequence (Q9L4P2 18-273): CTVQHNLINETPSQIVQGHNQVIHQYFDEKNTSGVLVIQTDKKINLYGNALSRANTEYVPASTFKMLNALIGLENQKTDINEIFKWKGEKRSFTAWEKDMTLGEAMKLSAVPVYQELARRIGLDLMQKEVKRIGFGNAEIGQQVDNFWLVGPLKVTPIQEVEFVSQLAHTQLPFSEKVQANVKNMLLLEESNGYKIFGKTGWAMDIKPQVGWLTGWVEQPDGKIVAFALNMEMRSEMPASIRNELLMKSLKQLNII
Class D beta-lactamase OXA 26 (A. baumannii NCTC 13303), sequence (Q9F0V2 entry or part of it): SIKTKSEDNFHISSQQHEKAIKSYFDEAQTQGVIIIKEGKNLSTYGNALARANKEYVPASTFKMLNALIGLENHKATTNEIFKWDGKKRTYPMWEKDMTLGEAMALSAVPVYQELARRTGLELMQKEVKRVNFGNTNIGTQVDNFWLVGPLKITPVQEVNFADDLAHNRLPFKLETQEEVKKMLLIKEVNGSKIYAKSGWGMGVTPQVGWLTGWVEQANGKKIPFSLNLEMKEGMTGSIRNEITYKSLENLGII

In general, zone of inhibition refers to the size of the clear area around the sample on an inoculated plate. In general, MIC refers to the lowest concentration that inhibits growth of the organism. What is called IC50 is the concentration at which inhibition is half-maximal. For the compound `O=C(CC1CNC1)NNC(=O)[C@@H]1CC[C@@H]2CN1C(=O)N2OS(=O)(=O)O` [Example 2, (2S,5R)-sulfuric acid mono-{2-[N′-(2-azetidin-3-yl-acetyl)-hydrazinocarbonyl]-7-oxo-1,6-diaza-bicyclo[3.2.1]oct-6-yl}ester], the “Diameter of Zone of Inhibition, Compound + Ceftazidime (10 μg/ml)” value (from here on “Diameter of Zone of Inhibition”) was 24 mm in the assay on E. coli NCTC 13353 (setting [8]); 26 mm with E. coli NCTC 13353 (setting [9]); 30 mm in the assay on E. coli NCTC 13353 (setting [10]); 21 mm in the assay on E. coli NCTC 13353 (setting [11]); 19 mm in the assay on E. coli M50 (setting [8]); 22 mm in the assay on E. coli M50 (setting [9]). Moreover, the “Diameter of Zone of Inhibition” value in the assay on E. coli M50 (setting [10]) was 23.5 mm; in the assay with E. coli M50 (setting [11]), 15 mm. The results for the zone of inhibition at 0.25 µg/disc with E. coli NCTC 13353 and in the assay on E. coli M50 were 10 mm and 9 mm, respectively. For the same compound, the zone of inhibition at 0.5 µg/disc in the assay with E. coli NCTC 13353 came to 13 mm; in the assay with E. coli M50, 12 mm. Besides, the zone of inhibition at 1 µg/disc in the assay with E. coli NCTC 13353 and with E. coli M50 was 15 mm throughout. In addition, the MIC in assay [1] turned out to be 2 µg/mL (≈ 5.3 µM); in assay [5] (NCTC13353), 1 µg/mL (≈ 2.65 µM); in [6], 4 µg/mL (≈ 10.6 µM). Besides, the IC50 in [2] is 0.103 µM; in assay [3] it was 0.097 µM; in assay [4] (setting [12]), 6.19 µM.
As to `CC(C)(O/N=C(\C(=O)N[C@@H]1C(=O)N2C(C(=O)[O-])=C(C[n+]3ccccc3)CS[C@H]12)c1csc(N)n1)C(=O)O` [Ceftazidime, ceftazidime, reference compound], the MIC in assay [1] (K. pneomoniae S48 (NDM, SHV, TEM), read-out: MIC) was greater than 32 µg/mL; in assay [5] (setting [13]) it was 32 µg/mL (≈ 58.5 µM); in [6] (setting [14]), greater than 32 µg/mL.
In the case of `O=C(O)[C@H]1/C(=C/CO)O[C@@H]2CC(=O)N21` [Clavulanic acid, clavulanic acid, reference compound], the IC50 in assay [4] (setting [12]) and in assay [7] was greater than 10 µM in each case.
For the compound `O=C(C[C@@H]1CCCNC1)NNC(=O)[C@@H]1CC[C@@H]2CN1C(=O)N2OS(=O)(=O)O` [Example 5, (2S,5R)-sulfuric acid mono-{2-[N′-(2-(S)-piperidin-3-yl-acetyl)-hydrazinocarbonyl]-7-oxo-1,6-diaza-bicyclo[3.2.1]oct-6-yl}ester], the MIC in assay [1] (18 h) was determined as 1 µg/mL (≈ 2.47 µM); in assay [5] (NCTC13353, 18 h), 0.5 µg/mL (≈ 1.23 µM); in assay [6] (18 h), 4 µg/mL (≈ 9.87 µM). In addition, the concentration for half-maximal inhibition (IC50) turned out to be 0.16 µM in assay [3] and 1.73 µM in assay [4] (setting [15]).
With `O=C(C[C@H]1CCCCN1)NNC(=O)[C@@H]1CC[C@@H]2CN1C(=O)N2OS(=O)(=O)O` [Example 4, (2S,5R)-sulfuric acid mono-{2-[N′-(2-(R)-piperidin-2-yl-acetyl)-hydrazinocarbonyl]-7-oxo-1,6-diaza-bicyclo[3.2.1]oct-6-yl}ester], the MIC in assay [1] came to 2 µg/mL (≈ 4.93 µM); in assay [5] (NCTC13353), 2 µg/mL (≈ 4.93 µM); in assay [6] it was 4 µg/mL (≈ 9.87 µM). The IC50 came to 0.056 µM in assay [2], 0.17 µM in [3] and 2.93 µM in assay [4] (setting [15]).
Turning to `C[C@@H](O)[C@H]1C(=O)N2C(C(=O)O)=C(SCCN=CN)C[C@H]12` [Imipenem, imipenem, reference compound], the MIC in assay [5] (setting [13]) came to 0.25 µg/mL (≈ 0.835 µM).
For the compound `O=C(C[C@@H]1CCCCN1)NNC(=O)[C@@H]1CC[C@@H]2CN1C(=O)N2OS(=O)(=O)O` [Example 3, (2S,5R)-sulfuric acid mono-{2-[N′-(2-(S)-piperidin-2-yl-acetyl)-hydrazinocarbonyl]-7-oxo-1,6-diaza-bicyclo[3.2.1]oct-6-yl}ester], the “Diameter of Zone of Inhibition” value was found to be 22 mm with E. coli NCTC 13353 (setting [8]); 27 mm in the assay with E. coli NCTC 13353 (setting [9]); 30 mm with E. coli NCTC 13353 (setting [10]); 20 mm in the assay with E. coli NCTC 13353 (setting [11]); 17.5 mm with E. coli M50 (setting [8]); 20 mm with E. coli M50 (setting [9]). Besides, the “Diameter of Zone of Inhibition” value in the assay on E. coli M50 (setting [10]) turned out to be 22.5 mm; in the assay with E. coli M50 (setting [11]), 14.5 mm. The zone of inhibition at 0.25 µg/disc in the assay on E. coli NCTC 13353 worked out at 14 mm; in the assay on E. coli M50, 13 mm. Besides, the results for the zone of inhibition at 0.5 µg/disc in the assay with E. coli NCTC 13353 and in the assay with E. coli M50 were 15 mm and 16 mm, respectively. The zone of inhibition at 1 µg/disc in the assay on E. coli NCTC 13353 and in the assay on E. coli M50 was 17 mm each time. Besides, the MIC amounted to 0.5 µg/mL (≈ 1.23 µM) in assay [1], 0.25 µg/mL (≈ 0.617 µM) in [5] (NCTC13353) and 0.5 µg/mL (≈ 1.23 µM) in assay [6]. Moreover, the IC50 in [2] is 0.052 µM; in [3], 0.074 µM; in assay [4] (setting [15]) it was 2.11 µM.
For the compound `O=C(CC1CCNCC1)NNC(=O)[C@@H]1CC[C@@H]2CN1C(=O)N2OS(=O)(=O)O` [Example 6, (2S,5R)-sulfuric acid mono-{2-[N′-(2-piperidin-4-yl-acetyl)-hydrazinocarbonyl]-7-oxo-1,6-diaza-bicyclo[3.2.1]oct-6-yl}ester], the MIC in [1] was 1 µg/mL (≈ 2.47 µM); in assay [5] (NCTC13353), 0.5 µg/mL (≈ 1.23 µM); in [6] it was 2 µg/mL (≈ 4.93 µM). The values for the IC50 in [2], in assay [3] and in assay [4] (setting [15]) were 0.037 µM, 0.06 µM and 1.61 µM, respectively.
As to `O=C(CC1CNCCN1)NNC(=O)[C@@H]1CC[C@@H]2CN1C(=O)N2OS(=O)(=O)O` (mixture of isomers) [Example 7, (2S,5R)-sulfuric acid mono-{2-[N′-(2-(RS)-piperazin-2-yl-acetyl)-hydrazinocarbonyl]-7-oxo-1,6-diaza-bicyclo[3.2.1]oct-6-yl}ester], the MIC in [1] was 2 µg/mL; in [5] (setting [13]) it was 2 µg/mL; in assay [6] (setting [14]), 4 µg/mL. In addition, the IC50 in assay [2] was 0.07 µM; in assay [3], 0.067 µM; in assay [4] (setting [15]), 2.84 µM.

(Values after US9657022B2, “7-OXO-1,6-diazabicyclo[3.2.1]octane derivatives and their use as antibacterial agents” (WOCKHARDT LIMITED, priority 2014, dated 2017).)
